Test results as given in patent US20190313934A1, “DEVICE AND SYSTEM FOR MONITORING AND TREATING MUSCLE TENSION-RELATED MEDICAL CONDITIONS” (Biotrak Health, Inc., priority 2016, published 2019).

Tests used:
[1] = Evaluation of analgesics, alone or with the prototype Halo system, on a human subject with recurring headaches; assay type: in vivo; settings: one subject
Description: The subject was a person in New York City with a history of recurring headaches. Tests were conducted in three stages between December 2016 and March 2017. In the first stage the subject used various over-the-counter analgesics at recommended dosages to manage headache symptoms (Sessions 1 and 2). Conditions were self-assessed prior to drug administration according to a standard headache scale, and then qualitatively reassessed for the extent of relief. In the second stage, the subject took an analgesic at the same time of using a prototype Halo™ system for 5 min (Session 3). In the third stage the subject used the prototype Halo™ system alone for a duration of 10 min on three occasions (Sessions 4-6).

[2] = diazepam combined with EMG biofeedback; chronic anxious patients; cited from earlier work

Which Relief ([1]; over-the-counter analgesic alone at recommended dosage, qualitative self-assessment of headache relief) does the source give for `CC(=O)Oc1ccccc1C(=O)O` [aspirin] here?
Its Relief is “Moderate”.

Which “Effect on muscular tension” value [2] does the source give for `CN1C(=O)CN=C(c2ccccc2)c2cc(Cl)ccc21` [diazepam] here?
Its value is “effectively reduced muscular tension”.

Which Relief ([1]; analgesic taken at the same time as using prototype Halo system for 5 min, qualitative self-assessment) does the source give for `COc1ccc2cc([C@H](C)C(=O)O)ccc2c1` [naproxen] here?
Its Relief is “Complete”.
